{"source": "ChEMBL document CHEMBL1255257", "about": "“Assessment of serum (1->3)-beta-D-glucan concentration as a measure of disease burden in a murine model of invasive pulmonary aspergillosis” (2008)", "key": {"[1]": {"tested_on": "Aspergillus fumigatus", "test": "Antifungal activity against Aspergillus fumigatus isolate CEA 10 infected in ICR mouse assessed as decrease in (1-3)-beta-D-glucan concentration in serum at 40 mg/kg, po QD (RVb= 707 pg/ml)", "format": "functional, organism-based", "design": "dose 40 mg/kg"}, "[2]": {"tested_on": "Aspergillus fumigatus", "test": "Antifungal activity against Aspergillus fumigatus isolate AF 293 infected in ICR mouse assessed survival of the mouse at 40 mg/kg, po QD", "format": "functional, organism-based", "design": "dose 40 mg/kg"}, "[3]": {"tested_on": "Aspergillus fumigatus", "test": "Antifungal activity against Aspergillus fumigatus isolate AF 293 infected in ICR mouse assessed as pulmonary fungal burden at 40 mg/kg, po QD", "format": "functional"}, "[4]": {"tested_on": "Aspergillus fumigatus", "test": "Antifungal activity against Aspergillus fumigatus isolate CEA 10 infected in ICR mouse assessed survival of the mouse at 40 mg/kg, po QD", "format": "functional, organism-based", "design": "dose 40 mg/kg"}, "[5]": {"tested_on": "Aspergillus fumigatus", "test": "Antifungal activity against Aspergillus fumigatus isolate AF 293 infected in ICR mouse assessed as decrease in (1-3)-beta-D-glucan concentration in serum at 40 mg/kg, po QD (RVb= 758 pg/ml)", "format": "functional, organism-based", "design": "dose 40 mg/kg"}, "[6]": {"tested_on": "Aspergillus fumigatus", "test": "Antifungal activity against Aspergillus fumigatus isolate CEA 10 infected in ICR mouse assessed as pulmonary fungal burden at 40 mg/kg, po QD", "format": "functional"}}, "note": "Active and inactive are the calls of the source. No cut-off for these calls is given here.", "data": [{"smiles": "CC[C@@H]([C@H](C)O)n1ncn(-c2ccc(N3CCN(c4ccc(OC[C@@H]5CO[C@@](Cn6cncn6)(c6ccc(F)cc6F)C5)cc4)CC3)cc2)c1=O", "note": "[POSACONAZOLE]", "values": [{"measurement": "Activity", "setting": "[1]", "value": "Active"}, {"measurement": "Activity", "setting": "[2]", "value": "Active"}, {"measurement": "fold change (FC)", "setting": "[3]", "value": 3.6}, {"measurement": "Activity", "setting": "[4]", "value": "Active"}, {"measurement": "Activity", "setting": "[5]", "value": "Active"}, {"measurement": "fold change (FC)", "setting": "[6]", "value": 7.3}]}]}
